Tests used:
[1] = test system: mesenteric resistance arteries of SHR; assay: Reactivity of isolated arteries: dilator effect during contraction induced by 40 mmol/L K+; set-up: species or system Spontaneously Hypertensive Rats (SHR)
Method: Segments of 2nd order mesenteric artery side branches were isolated from 14 weeks old male Spontaneously Hypertensive Rats (SHR). Two stainless-steel wires (diameter 40 μm) were inserted in the lumen of the arterial segments, which were then mounted in organ chambers between an isometric force transducer and a displacement device (Danish Myotechnology by J. P. Trading, Denmark). The organ chambers were filled with Krebs-Ringer bicarbonate solution which was maintained at 37° C. and continuously aerated with 95% O2 and 5% CO2. Before the actual experiments started, arterial segments were stretched to their individual optimal lumen diameter for mechanical performance, i.e. the diameter at which maximal contractile responses to noradrenaline (10 μmol/L) were obtained. In each experiment four second order mesenteric resistance arterial segments from one animal were mounted in individual organ chambers and studied in parallel. […]
For the analysis of the acute effects of the mixtures on K+-induced contraction, increasing concentrations of the mixtures (0.1-100 umol/L) were administered on top of the stable contractions and were left in contact with the arterial segments for 5-7 min to make sure that either no effect or a stable effect was reached. […] In this way, the effects of different exposure times to the mixtures (7, 30 and 90 min) on K+-induced contraction, could be evaluated. […]
Active wall tension (AWT) was calculated by subtracting the resting wall tension.
All contractile responses (AWT in the presence of stimuli, solvent and mixes of ingredients) were next expressed as a percentage of the contractile response (AWT) to 10 uM noradrenaline at the end of the normalisation period, i.e. before exposure of the arterial segments to solvent or mixes of ingredients.
Effects of increasing concentrations of the solvent and of the mixes (0.1 to 100 umol/L) during contractile responses to 40 mmol/L K+, were calculated as % change of the level of pre-contraction. […]

[2] = meeting abstract of Experimental biology 2007; read-out: vasorelaxing properties, 50% dose; cited from earlier work

## O=C(O)C=Cc1ccc(O)cc1 [p-coumaric acid, 3-(4-hydroxyphenyl)-2-prepenoic acid]
[1]; at a low concentration, by comparing the effect of different mixtures
  influence on the dilation of the arteries: significant influence on the dilation of the arteries
[1]; isolated SHR mesenteric arteries, K+ (40 mmol/L) pre-contraction, deduced by comparing different mixtures (Plackett-Burman design), corrected for solvent, read-out: EC50 of dilation of the arteries
  EC50: 7.5 µM
[1]; isolated SHR mesenteric arteries, K+ (40 mmol/L) pre-contraction, mixtures 0.1-100 umol/L
  concentration at which maximum dilatation was obtained: 100 µM
[2]
  EC50: 30 nM

— patent US20090011103A1, “Composition comprising polyphenol” (Conopco, Inc. d/b/a Unilever, priority 2007, published 2009)
